The source of these data is patent publication US20140121216A1, “INDOLEAMINE DERIVATIVES FOR THE TREATMENT OF CENTRAL NERVOUS SYSTEM DISEASES” (Adamed Sp. z o.o., priority 2011, published 2014).

Assay [1] has as its target T1, 5-HT7 receptor, human recombinant (Homo sapiens, UniProt P34969).
T1 construct: purchased PerkinElmer
The assay is described as follows: Binding assay, 5-HT7 receptor ([3H]LSD). Conditions: read-out: Inhibition constant Ki 5-HT7. The protocol:
Moreover, ability of the compounds of the invention to block potassium channel hERG was tested.
The specific ligand binding to the receptors is defined as the difference between the total binding and the non-specific binding determined in the presence of an excess of unlabelled ligand.
The inhibition constants (Ki) were calculated using the Cheng Prusoff equation (Ki=IC50/(1+(L/KD)), where L=concentration of radioligand in the assay, and KD=affinity of the radioligand for the receptor). A Scatchard plot is used to determine the Kd. The IC50 values (concentration causing a half-maximal inhibition of control specific binding) and Hill coefficients (nH) were determined by non-linear regression analysis of the competition curves generated with mean replicate values using Hill equation curve fitting (Y=D+[(A−D)/(1+(C/C50)^nH)], where Y=specific binding, D=minimum specific binding, A=maximum specific binding, C=compound concentration, C50=IC50, and nH=slope factor).

The test system of the next assay is C57BL/6J mice. The assay is described as follows: Tail suspension test in C57BL/6J mice. In kind it is in vivo. The protocol:
(§1) Within 24 h prior to testing, animals were habituated to experimental conditions. For this purpose mice in home cages were transferred to the experimental room for 15 min., while maintaining the lighting and the “white noise” characteristic for the experiment.
The testing procedure was performed on male C57BL/6J mice and based on a method of Steru et al. (The tail suspension test: a new method for screening antidepressants in mice, Psychopharmacology 85, 367-370, 1985). An automated device (Kinder Scientific) was used. After 1 h of adaptation in the experimental room with low light, the mice received the test compound intraperitoneally (at least 3 selected doses).
After a specified time after administration of the test compound mice were suspended by the tail with tape to an aluminum hook connected to a strain gauge. Mice were positioned such that the base of their tail was aligned with the bottom of the hook. […] A strain gauge connected to computer software detected any movements by the mouse in order to record the number of times (events) each subject enters into an escape behavior (struggling episodes), the duration of the event, and the average strength of each event during a 6-min test session. The following settings were used in all experiments: threshold 0.20 Newtons, off delay 30 msec.

The next assay relates to Male CD-1 mice. In words: Dizocilpine-induced locomotor hyperactivity in mice. In kind it is in vivo. How it is done: Potential antipsychotic activity was tested for the representative compound 24 in mouse model of psychosis, involving the induction of locomotor hyperactivity by administering psychotomimetic substance-dizocilpine. The ability of a test compound to remove this effect is a measure of potential antipsychotic activity.
Male CD-1 mice were group-housed for 2-3 day period in polycarbonate Makrolon type 3 cages (dimensions 26.5×15×42 cm) in an environmentally controlled, experimental room (ambient temperature 22-20° C.; relative humidity 50-60%; 12:12 light:dark cycle, lights on at 8:00), in groups of 15. Standard laboratory food (Ssniff M-Z) and filtered water were freely available. On the day before experiments the equipment produced “white noise” was turned on for 30 minutes and mice were weighted exact to 1 g. Animals were assigned randomly to treatment groups. All the experiments were performed by two observers unaware of the treatment applied between 9:00 and 14:00 on separate groups of animals. […]
The locomotor activity was recorded with an Opto M3 multi-channel activity monitor (MultiDevice Software v.1.3, Columbus Instruments). The mice were individually placed in plastic cages (22×12×13 cm) for 30 minutes habituation period, and then the crossings of each channel (ambulation) were counted during 1 h with data recording every 5 minutes. […]

The subject of the next assay is Swiss albino mice. In words: Four-plate test in Swiss albino mice. Format: in vivo. The protocol: as §1
The four-plate test (BIOSEB, France) was performed in a cage (25×18×16 cm) floored by four identical rectangular metal plates (8×11 cm) separated from one another by a gap of 4 mm. The top of the cage was covered by a transparent Perspex lid that prevented escape behaviour. The plates were connected to a device that generated electric shocks. Animals were placed individually in the experimental cage and following a 15-s habituation period, the animal's motivation to explore a novel environment was suppressed by an electric foot shock (0.8 mA, 0.5 s) every time it moved from one plate is to another during a 1-minute test session. This action is referred to as a ‘punished crossing’, and was followed by a 3 s shock interval, during which the animal could move across plates without receiving a shock. The measure of anxiolytic activity of the compound was the number of ‘punished crossings’ from one plate to the adjacent during 1-min test period.

T1 sequence (P34969 whole entry): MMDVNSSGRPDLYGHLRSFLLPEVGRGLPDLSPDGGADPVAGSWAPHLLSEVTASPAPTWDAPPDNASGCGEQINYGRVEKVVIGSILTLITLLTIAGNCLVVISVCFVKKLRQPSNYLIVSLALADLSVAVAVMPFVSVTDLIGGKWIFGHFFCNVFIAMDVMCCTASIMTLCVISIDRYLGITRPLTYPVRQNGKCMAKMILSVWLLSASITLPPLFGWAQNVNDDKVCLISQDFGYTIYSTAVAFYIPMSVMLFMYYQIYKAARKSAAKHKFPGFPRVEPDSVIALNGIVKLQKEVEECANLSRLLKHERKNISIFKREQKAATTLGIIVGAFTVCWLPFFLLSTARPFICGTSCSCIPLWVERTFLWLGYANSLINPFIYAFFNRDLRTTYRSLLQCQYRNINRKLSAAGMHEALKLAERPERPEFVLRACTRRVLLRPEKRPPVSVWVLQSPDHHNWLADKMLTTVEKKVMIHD

On to `O=C1CCc2ccc(OCCCCN3CCN(c4cccc5c4ccn5S(=O)(=O)c4ccccc4)CC3)cc2N1` [Compound 24, 7-(4-(4-(1-(Phenylsulphonyl)-1H-indol-4-yl)piperazin-1-yl)butoxy)-3,4-dihydroquinolin-2(1H)-one], for which, in assay [1], the Ki was determined as 0.067 µM. In the assay on C57BL/6J mice (C57BL/6J mice, i.p.), the “MED (minimum effective dose), tail suspension test” value worked out at 1.25 mg/kg. Also, the “activity in words, tail suspension test” value in the assay with C57BL/6J mice (mice) is on record as “active”. Further, the “activity in words, dizocilpine-induced locomotor hyperactivity test” value in the assay on Male CD-1 mice was “active”. Further, the “MED (minimum effective dose), dizocilpine-induced locomotor hyperactivity” value in the assay with Male CD-1 mice (i.p., 30 minutes before the experiment) worked out at 10 mg/kg. For the same molecule, the “MED (minimum effective dose), four-plate test” value in the assay on Swiss albino mice (Swiss albino mice) is recorded as 5 mg/kg. Further, the “activity in words, four-plate test” value in the assay with Swiss albino mice (mice) was “active”.
